PMC11121535, “Inhibition of Shikimate Kinase from Methicillin-Resistant Staphylococcus aureus by Benzimidazole Derivatives. Kinetic, Computational, Toxicological, and Biological Activity Studies” (International Journal of Molecular Sciences, 2024)
Read-outs that look alike come from different tables or passages of the source.

Key:
[1] = target: T1, shikimate kinase (SaSK) (Staphylococcus aureus, UniProt Q5HFM1); test: pyruvate kinase/lactate dehydrogenase coupled assay with purified SaSK; Lineweaver-Burk (Ki […] vs shikimate, […] vs ATP); format: biochemical
T1 construct: gene aroK

[2] = target: T2, shikimate kinase (SaSK) (Staphylococcus aureus, UniProt Q5HFM1); test: biochemical; parameters: Coupled PK/LDH assay of purified SaSK, NADH oxidation at 340 nm, fixed-concentration inhibition screen, 25 °C
T2 construct: gene aroK
T2 sequence (Q5HFM1 1-174): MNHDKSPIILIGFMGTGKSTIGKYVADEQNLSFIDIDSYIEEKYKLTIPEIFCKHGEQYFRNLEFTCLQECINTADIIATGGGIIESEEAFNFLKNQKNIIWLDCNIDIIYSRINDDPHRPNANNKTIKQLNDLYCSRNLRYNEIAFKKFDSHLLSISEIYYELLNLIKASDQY
Method: The activity of purified SaSK was measured by a coupled assay described by Favela et al., [67] following the oxidation of NADH to NAD, monitored at 340 nm using an Hp Agilent 8453 UV-VIS spectrophotometer. The assay mixture contained 100 mM Tris-HCl pH 7.6, 5 mM MgCl2, 100 mM KCl, 2 mM ATP, 1 mM shikimate, 1 mM phosphoenolpyruvate, 6 μg/mL pyruvate kinase, 6 μg/mL lactate dehydrogenase, 0.25 mM NADH, 10% of dimethyl sulfoxide (DMSO), and 70 ng of purified SaSK protein. All assays were performed in triplicate at 25 °C. It is important to mention that at the percentage of DMSO used, the activity of the enzyme was not affected. The primary screening of the benzimidazole compound library was carried out at a fixed concentration of 200 µM or at the maximum solubility possible for compounds with poor solubility in assay conditions. All the compounds were dissolved in DMSO.

[3] = target: T1, shikimate kinase (SaSK); test: pyruvate kinase/lactate dehydrogenase coupled assay with purified SaSK; Lineweaver-Burk (Ki […] vs shikimate, […] vs ATP); format: biochemical; remark: listed apart in the source
[4] = target: T1, shikimate kinase (SaSK); test: coupled enzyme assay, purified SaSK, % inhibition at […]; format: biochemical

O=C(NN=Cc1ccc([N+](=O)[O-])o1)c1ccc2[nH]cnc2c1 [C1, N′-[(5-Nitrofuran-2-yl)methylene]-1H-benzimidazole-5-carbohydrazide]
Ki [1]: 48 µM | inhibition at 70 µM [2]: 50%

Cn1c(C(F)(F)F)nc2cc(C(=O)NN=Cc3ccc([N+](=O)[O-])o3)ccc21 [C2, 1-Methyl-N′-[(5-nitrofuran-2-yl)methylene]-2-(trifluoromethyl)-1H-benzimidazole-5-carbohydrazide]
Ki [3]: 50 µM | inhibition at 100 µM [2]: 60%

O=C(NN=Cc1ccc([N+](=O)[O-])o1)c1ccc2[nH]c(C(F)(F)F)nc2c1 [C3, N′-[(5-Nitrofuran-2-yl)methylene]-2-(trifluoromethyl)-1H-benzimidazole-5-carbohydrazide]
inhibition at 100 µM [4]: 43%

Cn1cnc2cc(C(=O)NN=Cc3ccc([N+](=O)[O-])o3)ccc21 [C4, 1-Methyl-N′-[(5-nitrofuran-2-yl)methylene]-1H-benzimidazole-5-carbohydrazide]
inhibition at 100 µM [4]: 40%
